# Publication PMC8853709, “Synthesis, computational studies, tyrosinase inhibitory kinetics and antimelanogenic activity of hydroxy substituted 2-[(4-acetylphenyl)amino]-2-oxoethyl derivatives” (Journal of Enzyme Inhibition and Medicinal Chemistry, 2019)
# Entries after “also recorded” stand apart in the source; their conditions may differ. Read-outs that look alike come from different tables or passages of the source.
# Assays:
# [1] = target: T1, mushroom tyrosinase (EC 1.14.18.1) (Agaricus bisporus, UniProt C7FF04); assay: Mushroom tyrosinase inhibition assay (L-DOPA, dopachrome absorbance); type: biochemical, Agaricusbisporus
# T1 construct: purchased Sigma Chemical Co., ST; Louis, MO
# T1 sequence (C7FF04 2-392): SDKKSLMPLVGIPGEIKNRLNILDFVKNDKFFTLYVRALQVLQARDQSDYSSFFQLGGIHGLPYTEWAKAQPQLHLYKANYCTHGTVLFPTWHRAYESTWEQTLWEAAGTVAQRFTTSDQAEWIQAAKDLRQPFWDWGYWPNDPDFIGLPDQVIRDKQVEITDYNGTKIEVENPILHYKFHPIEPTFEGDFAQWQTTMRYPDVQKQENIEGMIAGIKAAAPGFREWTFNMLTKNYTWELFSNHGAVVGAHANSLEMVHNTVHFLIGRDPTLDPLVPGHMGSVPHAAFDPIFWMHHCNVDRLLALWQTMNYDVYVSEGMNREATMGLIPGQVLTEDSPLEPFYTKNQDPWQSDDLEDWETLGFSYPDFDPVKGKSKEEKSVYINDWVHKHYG
# Description: The mushroom tyrosinase (EC 1.14.18.1) (Sigma Chemical Co., ST. Louis, MO) was used for in vitro bioassays as described previously with some modifications[39]^,[40]. Briefly, 140 µL of phosphate buffer (20 mM, pH 6.8), 20 µL of mushroom tyrosinase (30 U/mL) and 20 µL of the inhibitor solution were placed in the wells of a 96-well micro plate. After pre-incubation for 10 min at room temperature, 20 µL of L-DOPA (3,4-dihydroxyphenylalanine) (0.85 mM) was added and the plate was further incubated at 25 °C for 20 min. Subsequently the absorbance of dopachrome was measured at 492 nm using a micro plate reader (OPTI Max, Tunable). Kojic acid was used as a reference inhibitor and for negative tyrosinase inhibitor phosphate buffer was used instead of the inhibitor solution. The extent of inhibition by the test compounds was expressed as the percentage of concentration necessary to achieve 50% inhibition (IC50). Each concentration was analysed in three independent experiments run in triplicate. The IC50 values were determined by the data analysis and graphing software Origin 8.6, 64-bit.
# mushroom tyrosinase = target: T2, mushroom tyrosinase (Agaricus bisporus, UniProt C7FF04); assay: Kinetic analysis of the inhibition of mushroom tyrosinase (Lineweaver–Burk, Dixon, enzyme concentration plots); type: biochemical, Agaricusbisporus; conditions: for type of inhibition (Lineweaver–Burk plot) / Ki: diphenolase activity, L-DOPA; for Ki: read-out: dissociation constant Ki (Dixon plot); for mode of binding (reversibility of enzyme–inhibitor complex): remaining enzyme activity versus enzyme concentration 1.25, 2.5 and 5 µg/mL
# T2 construct: purchased Sigma Chemical Co., ST; Louis, MO
# T2 sequence (C7FF04 2-392): as above
# Description: To understand the mechanism of mushroom tyrosinase inhibition by compounds 5c and 5d, kinetic studies were conducted. […] Enzyme inhibition kinetics was analysed by Lineweaver–Burk plot and Dixon plots to determine the type of inhibition and inhibition constant (KI).
# The inhibitory mechanism of mushroom tyrosinase by compounds 5c (in concentrations: 0.0, 0.0011, 0.0022, 0.0045, 0.0090 and 0.018 µM) and 5d (in concentrations: 0.0, 1.75, 3.5, 7.0, 14, 28 and 56 µM) were investigated.
# A series of experiments were performed to determine the inhibition kinetics by following method[41]^,[42]. Inhibitor 5c with concentrations […], 0.0022, 0.0045, 0.009, 0.018 µM and 5d with concentrations 0.0, 1.75, 3.5, 7, 14 and 28 µM, respectively, were used. Substrate L-DOPA concentration was among 0.0625–2 mM in all kinetic study. Pre-incubation and measurement time was the same as discussed in mushroom tyrosinase inhibition assay protocol. The formation of DOPAchrome was continuously monitored at 475 nm for 5 min at a 30 s interval in the microplate reader after addition of enzyme. The inhibition type on the enzyme was assayed by Lineweaver–Burk plots of inverse of velocities (1/V) versus inverse of substrate concentration 1/[S] mM^−1, and the inhibition constant Ki was determined by the Dixon plot of 1/V versus inhibitor concentrations.
# [2] = system: murine melanoma (B16F10) cells; assay: Melanin content measurement; type: cell-based
# Description: For melanin measurement, melanoma (1.5 × 10^5) cells were seeded in cell culture plates for 24 h at 37 °C and 5% CO2incubator. Then cells were incubated with various concentrations of 5c in cell culture medium for further 24 h. Later, assay for melanin measurement was performed following already reported method. Briefly, the cells were trypsinised and centrifuged for 5 min at 1000 rpm. The cell pellet was dissolved in 1 N NaOH at 60 °C for 1 h and melanin content was measured spectrophotometrically at 405 nm wavelengths using a microplate reader (BioTek, synergy HT, Winooski, VT).
# [3] = MTT cell viability assay and cell morphology; type: cell-based, murine; conditions: mouse, B16F10 murine melanoma cells, B16F10, 24 µg/ml, read-out: toxic effect in MTT cell viability assay, compared to control normalized to 100%
# Description: (§1) To test the safety level of 5c compound, MTT assay (3-(4,5-dimethylthiazol-2-yl)-2,5-diphenyltetrazolium Bromide) was performed. The murine melanoma (B16F10) cells (1.5 × 10^5 cells/ml) were seeded in 24 well plates (SPL Korea) with DMEM medium at 37 °C and 5% CO2 incubator. Test compound 5c was dissolved in DMSO and diluted with culture medium to get the final concentrations of 0 (control), 6, 12 and 24 µg/ml, and then added to the cells for 24 h further incubation. The MTT assay was then conducted, and results were calculated in percentage of control. In addition, cellular images were taken by inverted fluorescent microscope (Nikon, ECLIPSE, Tokyo, Japan) to access the 5c effect on cell morphology.
# [4] = system: murine melanoma (B16F10) cells; assay: MTT cell viability assay and cell morphology; type: cell-based; conditions: 24 h
# Description: as §1
# [5] = L-DOPA substrate, pH 6.8, 25 °C, read-out: Mushroom tyrosinase inhibition IC50
compound,measurement,setting,value
CC(=O)c1ccc(NC(=O)CCl)cc1 [Compound 1],IC50,[1],54.5 ± 3.1 µM
"CC(=O)c1ccc(NC(=O)COC(=O)/C=C/c2ccc(Cl)cc2)cc1 [Compound 5d, 2-[(4-Acetylphenyl)amino]-2-oxoethyl-(E)-3-(4-chlorophenyl)acrylate]",type of inhibition (Lineweaver–Burk plot),mushroom tyrosinase,mixed-type inhibitor
same,Ki,mushroom tyrosinase,6 µM
same,mode of binding (reversibility of enzyme–inhibitor complex),mushroom tyrosinase,irreversibly bind; also recorded: irreversible inhibitor; also recorded: irreversible mode of binding
same,IC50,[1]; [5],8.26 ± 1.7 µM
"CC(=O)c1ccc(NC(=O)COC(=O)c2ccc(O)cc2O)cc1 [Compound 3c, 2-[(4-Acetylphenyl)amino]-2-oxoethyl 2,4-dihydroxybenzoate]",IC50,[1],145 ± 16.7 µM
"CC(=O)c1ccc(NC(=O)COC(=O)c2cccc(O)c2)cc1 [Compound 3a, 2-[(4-Acetylphenyl)amino]-2-oxoethyl 3-hydroxybenzoate]",IC50,[1],325 ± 16.9 µM
"CC(=O)c1ccc(NC(=O)COC(=O)C=Cc2ccccc2)cc1 [Compound 5a, 2-[(4-Acetylphenyl)amino]-2-oxoethyl cinnamate]",IC50,[1],63.5 ± 2.5 µM
"CC(=O)c1ccc(NC(=O)COC(=O)/C=C/c2ccc(O)cc2O)cc1 [Compound 5c, 2-[(4-Acetylphenyl)amino]-2-oxoethyl (E)-3-(2,4-dihydroxyphenyl)acrylate]",type of inhibition (Lineweaver–Burk plot),mushroom tyrosinase,competitive inhibitor
same,Ki,mushroom tyrosinase,0.01 µM
same,mode of binding (reversibility of enzyme–inhibitor complex),mushroom tyrosinase,irreversibly bind; also recorded: irreversible mode of binding
same,antimelanogenic activity,"[2]; B16F10, 12 µg/mL",produced antimelenogenic effects
same,cellular melanin content as compared to control normalized to 100%,"[2]; B16F10, 12 µg/ml, 24 h",82%
same,IC50,[1]; [5],0.0089 ± 0.0004 µM
same,"viability at 24 h, 24 µg/ml",[3],33.7%
same,effect on cell viability (MTT),"[4]; B16F10, 12 µg/ml",safe and no significant effect and nontoxic
same,effect on cell morphology,"[4]; B16F10, 3, 6, 12 µg/ml",no effect on cell morphology
same,melting point,,236 to 238 °C
"CC(=O)c1ccc(NC(=O)COC(=O)c2ccc(O)c(O)c2)cc1 [Compound 3d, 2-[(4-Acetylphenyl)amino]-2-oxoethyl 3,4-dihydroxybenzoate]",IC50,[1],257 ± 23.4 µM
CC(=O)c1ccc(NC(=O)COC(=O)c2cc(O)cc(O)c2)cc1 [Compound 3e],IC50,[1],166 ± 14.2 µM
same,melting point,,249 to 251 °C
"CC(=O)c1ccc(NC(=O)COC(=O)c2ccc(O)cc2)cc1 [Compound 3b, 2-[(4-Acetylphenyl)amino]-2-oxoethyl 4-hydroxybenzoate]",IC50,[1],319 ± 31.9 µM
"CC(=O)c1ccc(NC(=O)COC(=O)/C=C/c2ccc(O)cc2)cc1 [Compound 5b, 2-[(4-Acetylphenyl)amino]-2-oxoethyl (E)-3-(4-hydroxyphenyl)acrylate]",IC50,[1],97.3 ± 5.8 µM
same,melting point,,226 to 228 °C
